In US20100324019A1 (priority 2007, published 2010):

Key:
Type in all cases: in vivo, human
[1] = test system: premature CVD patients by MTHFR C677T genotype; assay: Blood pressure in 16-week placebo controlled riboflavin intervention trial, premature CVD patients; conditions: for Diastolic blood pressure / Systolic blood pressure: mean (SD)
Source text: (§1) Ethical approval was granted by both the Research Ethical Committee of the University of Ulster and Altnagelvin Hospital Trust, Londonderry, Northern Ireland. Premature CVD patients, males aged 55 years and females aged 65 years and under at time of event were recruited from the cardiac department of Altnagelvin hospital. Patients were indicated by a previous myocardial infarction (MI) or angina diagnosed by ECG changes. Potential participants (n=404) were screened for MTHFR genotype on the basis of a buccal swab sample. Those with the TT genotype were identified (n=54); these were age and sex matched with a similar number of patients with the CC or CT genotypes, resulting in a total of 197 patients who were invited to participate in the current intervention study (see FIG. 1). Exclusion criteria for all subjects were history of hepatic or renal disease, consumers of B-vitamin supplements, those taking medication known to interfere with folate metabolism, at least 3 months post MI prior to blood sampling. All volunteers provided written informed consent and completed a health and medical/lifestyle questionnaire which included questions regarding family history of CVD and smoking habits.
(§2) The study was a 16-week placebo controlled intervention trial. […] Non-fasting blood samples were collected at screening and post intervention either at Altnagelvin hospital, their workplace or their own homes.
(§3) Blood pressure measurements were recorded as the mean of two separate measurements taken 15 minutes apart using an Omcron 705CP electronic blood pressure monitor (Medisave, Dorset, UK). Weight (kg) and height in (m), were used to calculate BMI (weight (kg)/height^2 (m)). Waist circumference (cm) was also measured. All measurements were made using Seca approved equipment (Brosch Direct, Ltd, Peterborough, UK).
All statistical analysis was performed using the SPSS statistical package for the social sciences (version 11.0, SPSS UK Ltd., Chersey, United Kingdom). For normalisation purposes variables were log-transformed as appropriate prior to statistical analysis. One way ANOVA with Tukey's post hoc test was used to examine the differences in the baseline characteristics among the genotype groups. Categorical data were assessed using chi squared analysis. Correlation analysis was performed using bivariate Pearson correlation coefficients. […] P values<0.05 were considered significant.

[2] = test system: premature CVD patients by MTHFR C677T genotype; assay: Plasma homocysteine (immunoassay) in 16-week riboflavin intervention trial, premature CVD patients; conditions: mean (SD)
Source text: as §1, §2
One 30 ml blood sample was collected from each patient, one 9 ml EDTA tube for plasma and washed red cells, one 4 ml EDTA tube for the preparation of red blood cell lysates and the measurement of haemoglobin (HB) and packed cell volume (PCV); one 8 ml serum separation tube for serum extraction, one 5 ml serum separation tube for lipid profile analysis and one 4 ml sodium citrate tube for coagulation screening. The 9 ml EDTA was immediately wrapped in tin foil and placed on ice. Samples were centrifuged within 2 hours of sampling at 3000 rpm for 15 minutes. Plasma was removed and stored at −80° C. for plasma homocysteine and PLP analysis. The buffy layer was removed for confirmation of MTHFR genotyping and stored at −20° C. The remaining red blood cells were thrice washed with phosphate buffered saline (PBS) with the supernatant and remaining buffy layer being discarded after each wash. […] Serum was removed and stored at −80° C. for serum folate.
Plasma homocysteine was measured by immunoassay using the Abbott Imx analyser (Leino A., 1999, “Fully automated measurement of total homocysteine in plasma and serum on the Abbott IMx analyzer.” Clin. Chem, 45, 569-71). Serum folate and red blood cell folate concentrations were determined by microbiological assay using the cryopreserved, microtitre plate method (Molloy et al, 1997, “Microbiological assay for serum, plasma, and red cell folate using cryopreserved, microtiter plate method.” Methods Enzymol, 281, 43-53). Plasma PLP was determined by reverse-phase high pressure liquid chromatography (HPLC) with fluorescence detection (Bates et al, 1999, “Plasma pyridoxal phosphate and pyridoxic acid and their relationship to plasma homocysteine in a representative sample of British men and women aged 65 years and over.” British Journal of Nutrition, 1, 191-201). Identification of the MTHFR C677T genotype was carried out using the polymerase chain reaction (PCR) amplification followed by HinF1 (Frosst et al, 1995, “A candidate genetic risk factor for vascular disease: A common mutation in methylenetetrahydrofolate reductase.” Nat Genetc, 10, 111-113). […] Coagulation screening was measured by ACI Instrumentation Laboratories. HB and PCV were measured using Sysmex XE-2100 (Sysmex, UK Ltd. Milton Keynes UK) analyser and lipid profiles were measured using Abbott Architect CI 8200 analyser (Abbott Laboratories, USA). For all assays, samples were analysed blind, in duplicate and within 1 year of collection. […]

[3] = test system: healthy subjects by MTHFR C677T genotype; assay: Blood pressure response to riboflavin intervention in healthy individuals; conditions: for Diastolic blood pressure / Systolic blood pressure: healthy subjects, median
Protocol: as §3
Measurements were taken and recorded according to the procedures described in Example 1 above. The results obtained, namely the baseline characteristics of healthy subjects pre-screened and age-matched for MTHFR genotype (n=124), are shown in Table 4.
A placebo controlled intervention study in 81 healthy individuals was carried out.

[4] = CC genotype, premature CVD patients, Post 16 weeks riboflavin 1.6 mg/day, n = 32
[5] = CC genotype, premature CVD patients, Pre intervention, n = 32
[6] = CT genotype, premature CVD patients, Post 16 weeks riboflavin 1.6 mg/day, n = 35
[7] = CT genotype, premature CVD patients, Pre intervention, n = 35
[8] = TT genotype, premature CVD patients, 16 weeks low-dose riboflavin
[9] = TT genotype, premature CVD patients, Post 16 weeks riboflavin 1.6 mg/day, n = 25
[10] = TT genotype, premature CVD patients, Pre intervention, n = 25
[11] = estimated from the magnitude of blood pressure lowering in TT patients
[12] = CC genotype, After riboflavin 1.6 mg/d, 16 weeks
[13] = CC genotype, Before intervention
[14] = CT genotype, After riboflavin 1.6 mg/d, 16 weeks
[15] = CT genotype, Before intervention
[16] = TT genotype, After riboflavin 1.6 mg/d, 16 weeks
[17] = TT genotype, Before intervention

**Q.** How did the Diastolic blood pressure [1, 4] turn out when `Cc1cc2nc3c(=O)[nH]c(=O)nc-3n(C[C@H](O)[C@H](O)[C@H](O)CO)c2cc1C` [Riboflavin, riboflavin] was run?
**A.** Its Diastolic blood pressure is 80.4 (12.0) mmHg.

**Q.** And the Systolic blood pressure [1, 4]?
**A.** Its Systolic blood pressure is 133.4 (15.3) mmHg.

**Q.** And the Diastolic blood pressure [1, 5]?
**A.** Its Diastolic blood pressure is 80.1 (8.9) mmHg.

**Q.** And the Systolic blood pressure [1, 5]?
**A.** Its Systolic blood pressure is 134.3 (14.9) mmHg.

**Q.** And the “effect on blood pressure (either systolic or diastolic)” value ([1]; CC genotype, premature CVD patients, following riboflavin administration)?
**A.** Its value is “no significant reduction”.

**Q.** And the Diastolic blood pressure [1, 6]?
**A.** Its Diastolic blood pressure is 84.2 (9.2) mmHg.

**Q.** And the Systolic blood pressure [1, 6]?
**A.** The Systolic blood pressure was 135.4 (15.4) mmHg.

**Q.** And the Diastolic blood pressure [1, 7]?
**A.** Its Diastolic blood pressure is 86.0 (10.8) mmHg.

**Q.** And the Systolic blood pressure [1, 7]?
**A.** The Systolic blood pressure was 136.2 (16.9) mmHg.

**Q.** What about the “decrease in diastolic blood pressure” value [1, 8] of the same molecule?
**A.** The value was 8 units.

**Q.** And the “decrease in systolic blood pressure” value [1, 8]?
**A.** Its value is 11 units.

**Q.** And the “effect on systolic and diastolic blood pressure” value [1, 8]?
**A.** The value was “significant lowering”.

**Q.** What about the Diastolic blood pressure [1, 9] of the same molecule?
**A.** Its Diastolic blood pressure is 80.2 (14.2) mmHg.

**Q.** And the Systolic blood pressure [1, 9]?
**A.** Its Systolic blood pressure is 131.6 (20.9) mmHg.

**Q.** What about the Diastolic blood pressure [1, 10] of the same molecule?
**A.** The Diastolic blood pressure was 88.1 (14.2) mmHg.

**Q.** And the Systolic blood pressure [1, 10]?
**A.** Its Systolic blood pressure is 142.8 (22.1) mmHg.

**Q.** And the “lowering of risk of heart disease estimated from meta-analyses” value [1, 11]?
**A.** Its value is 29%.

**Q.** What about the “lowering of risk of stroke estimated from meta-analyses” value [1, 11] of the same molecule?
**A.** Its value is 46%.

**Q.** And the Homocysteine ([2]; CC genotype, Post 16 weeks riboflavin 1.6 mg/day, n = 32)?
**A.** The Homocysteine was 9.8 (3.6) μmol/l.

**Q.** And the Homocysteine ([2]; CC genotype, Pre intervention, n = 32)?
**A.** Its Homocysteine is 10.1 (3.9) μmol/l.

**Q.** And the Homocysteine ([2]; CT genotype, Post 16 weeks riboflavin 1.6 mg/day, n = 35)?
**A.** The Homocysteine was 10.6 (6.3) μmol/l.

**Q.** What about the Homocysteine ([2]; CT genotype, Pre intervention, n = 35) of the same molecule?
**A.** Its Homocysteine is 10.5 (3.8) μmol/l.

**Q.** And the Homocysteine ([2]; TT genotype, Post 16 weeks riboflavin 1.6 mg/day, n = 25)?
**A.** Its Homocysteine is 10.0 (3.1) μmol/l.

**Q.** And the Homocysteine ([2]; TT genotype, Pre intervention, n = 25)?
**A.** The Homocysteine was 11.3 (4.4) μmol/l.

**Q.** What about the “effect on systolic or diastolic blood pressure” value ([3]; healthy cohort with the TT genotype, 1.6 mg/day for 16 weeks) of the same molecule?
**A.** The value was “no significant systolic or diastolic blood pressure lowering effect”.

**Q.** What about the “effect on diastolic blood pressure” value ([3]; healthy individuals, CC group, 1.6 mg/day for 16 weeks) of the same molecule?
**A.** The value was “increase”.

**Q.** What about the Diastolic blood pressure [3, 12] of the same molecule?
**A.** The Diastolic blood pressure was 86.5 mmHg.

**Q.** And the Systolic blood pressure [3, 12]?
**A.** The Systolic blood pressure was 143.5 mmHg.

**Q.** And the Diastolic blood pressure [3, 13]?
**A.** The Diastolic blood pressure was 80.5 mmHg.

**Q.** What about the Systolic blood pressure [3, 13] of the same molecule?
**A.** Its Systolic blood pressure is 137.0 mmHg.

**Q.** And the Diastolic blood pressure [3, 14]?
**A.** Its Diastolic blood pressure is 89.0 mmHg.

**Q.** And the Systolic blood pressure [3, 14]?
**A.** Its Systolic blood pressure is 150.0 mmHg.

**Q.** What about the Diastolic blood pressure [3, 15] of the same molecule?
**A.** Its Diastolic blood pressure is 87.0 mmHg.

**Q.** And the Systolic blood pressure [3, 15]?
**A.** The Systolic blood pressure was 150.0 mmHg.

**Q.** What about the Diastolic blood pressure [3, 16] of the same molecule?
**A.** Its Diastolic blood pressure is 88.5 mmHg.

**Q.** And the Systolic blood pressure [3, 16]?
**A.** Its Systolic blood pressure is 145.0 mmHg.

**Q.** And the Diastolic blood pressure [3, 17]?
**A.** Its Diastolic blood pressure is 88.5 mmHg.

**Q.** And the Systolic blood pressure [3, 17]?
**A.** The Systolic blood pressure was 139.5 mmHg.
